Among the data in PubChem BioAssay (NCI) are TGI and GI50 values, retold here.

Among the test systems are UACC-257 melanoma; UO-31 renal; SF-295 CNS; SK-MEL-28 melanoma; SK-OV-3 ovarian; SF-539 CNS; HCC-2998 colon; CAKI-1 renal; COLO 205 colon; EKVX NSCLC; SK-MEL-2 melanoma; SF-268 CNS; KM12 colon.
What all share (test): NCI tumour cell line growth inhibition, 48 h

SMILES strings stand for the structures.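 Following 48 hours of exposure in 96-well plates, responses at five concentrations were used to interpolate endpoints linearly. GI50 marks 50% less growth. TGI marks complete inhibition of growth.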

On to `CCOC(=O)/C(=N/Nc1ccccc1)N1C(=S)C=C(C)NN(C)C1=S`, for which the TGI in the test on UACC-257 melanoma is more than 100 µM; in the test with UO-31 renal, more than 100 µM; in the test on SF-295 CNS it was 84.9 µM; with SK-MEL-28 melanoma it was more than 100 µM; in the test with SK-OV-3 ovarian it was more than 100 µM; in the test on SF-539 CNS, more than 100 µM. For the same molecule, the TGI in the test on HCC-2998 colon, in the test with CAKI-1 renal, in the test with COLO 205 colon, in the test on EKVX NSCLC, in the test with SK-MEL-2 melanoma and in the test on SF-268 CNS was more than 100 µM in each case. Also, the TGI in the test on KM12 colon was more than 100 µM.

For `C/C(=N\NC(=O)c1ccccc1O)c1cccc(/C(C)=N/NC(=O)c2ccccc2O)n1.O=S(=O)([O-])[O-].[Fe+2]`, the GI50 with UACC-257 melanoma, in the test with UO-31 renal, in the test with SK-MEL-28 melanoma, with SF-539 CNS, with CAKI-1 renal and with COLO 205 colon was more than 100 µM in each case. Moreover, the TGI in the test on UACC-257 melanoma, with UO-31 renal, with SF-295 CNS, in the test on SK-MEL-28 melanoma, in the test on SK-OV-3 ovarian and in the test with SF-539 CNS was more than 100 µM each time. In addition, the TGI in the test on HCC-2998 colon, with CAKI-1 renal, in the test on COLO 205 colon, in the test on EKVX NSCLC, in the test on SK-MEL-2 melanoma and with SF-268 CNS was more than 100 µM in each case. This molecule returned a TGI with KM12 colon of more than 100 µM.
